{"source": "patent US20250268894A1", "about": "“MACROCYCLE COMPOUNDS FOR THE TREATMENT OF CANCER” (Hoffmann-La Roche Inc., priority 2022, published 2025)", "key": {"[1]": {"system": "AGS cells (KRAS G12D)", "assay": "Cell viability assay (Cell Counting Kit-8), KRAS G12D", "type": "cell-based", "settings": "Homo sapiens, 72 hrs", "method_in_brief": "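Cells seeded overnight at 5,000/well (NCI-H358) or 2,000/well (AGS, SW620), then exposed to compound for 72 hrs at 0.5% DMSO final. CCK-8 read as OD450 minus OD650 after 2 hrs; IC50 from 4-parameter sigmoidal fit.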"}, "[2]": {"target": "KRAS G12C-BRAF complex (Homo sapiens (Human), UniProt P01116+P62937, G12C)", "sequence (P01116-2 other isoform, or with tags, fused parts or gaps G12C)": "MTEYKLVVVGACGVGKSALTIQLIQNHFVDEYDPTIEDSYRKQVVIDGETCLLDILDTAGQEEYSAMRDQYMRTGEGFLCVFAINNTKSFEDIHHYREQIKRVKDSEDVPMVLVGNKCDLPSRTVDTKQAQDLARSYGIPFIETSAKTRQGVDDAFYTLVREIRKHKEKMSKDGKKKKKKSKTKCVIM", "sequence (P62937 whole entry)": "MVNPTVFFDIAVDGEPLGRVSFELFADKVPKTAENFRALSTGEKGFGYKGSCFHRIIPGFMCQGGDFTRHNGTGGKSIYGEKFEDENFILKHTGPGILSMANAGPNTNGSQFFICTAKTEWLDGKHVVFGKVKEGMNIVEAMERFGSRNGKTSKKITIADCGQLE", "assay": "KRAS-BRAF with CYPA (500 nM) interaction assay (TR-FRET), G12C", "type": "biochemical", "method_in_brief": "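TR-FRET read of compound- or compound-CYPA-driven disruption of BRAF binding by KRAS G12C, G12D or G12V, with CYPA at 500 nM. Compounds tested as 16-point 3-fold dilutions from 10 μM final, incubated 3 hours. Ex320/Em 665/615 nm ratio drop relative to DMSO wells marks disruption.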"}, "[3]": {"system": "phosphorylation of ERK, KRAS G12C in NCI-H358 cells", "assay": "pERK inhibition assay, KRAS G12C in NCI-H358 cells", "type": "cell-based, human", "settings": "Homo sapiens, NCI-H358, 4 hours", "method_in_brief": "(§1)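 NCI-H358 (G12C), AGS (G12D) and SW620 (G12V) cells in RPMI-1640/10% FBS, plated overnight, then treated 4 h with compound (0.5% DMSO final). Fixed, methanol-permeabilized; phospho-ERK detected by in-cell ELISA (anti-pERK, HRP secondary, TMB, OD450). IC50 from 4-parameter sigmoidal fit.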"}, "[4]": {"system": "phosphorylation of ERK, KRAS G12D in AGS cells", "assay": "pERK inhibition assay, KRAS G12D in AGS cells", "type": "cell-based, human", "settings": "Homo sapiens, 4 hours", "method_in_brief": "as §1"}, "[5]": {"system": "phosphorylation of ERK, KRAS G12V in SW620 cells", "assay": "pERK inhibition assay, KRAS G12V in SW620", "type": "cell-based, human", "settings": "Homo sapiens, SW-620, SW620, 4 hours", "method_in_brief": "as §1"}, "[6]": {"system": "Miapaca-2 KRAS G12C + V8A cells", "assay": "Stable KRAS mutant cell line viability assay (CellTiter-Glo), G12C + V8A", "type": "cell-based", "settings": "Homo sapiens, MIA PaCa-2, 72 h, Miapaca-2 mutant cells, 3 d", "from_the_text": "(§2) The aim of the study was to determine the potency and efficacy of compounds for cell proliferation using CellTiter-Glo® (CTG) Luminescent Cell Viability Assay (Promega Corp., Madison, WI). We cloned […] KRAS^G12C variant sequences with secondary mutations (V8A, V9Y, S17E, T58I, A59T, S65W, R68S, D69P, M72I, D92R, H95N, Y96D, Q99F, Q99W, Y96H, and F156L) into the Miapaca-2. Totally 14 stable Miapaca-2 mutant cell lines were established through lentivirus infection. For the cell viability assay, cells were dosed with compounds in a 9-point dose-response using a 4 fold dilution series at a top dose of 10 μM. KRAS mutant cells were maintained in DMEM+10% FBS+2.5% HI Horse serum+1% PS+1 μg/mL Puromycin and seeded into 96-well plates at 800-1,500 cells per well 24 h before compound addition and then incubated with compound for 3 d before assaying viability (CellTiter-Glo, Promega). Assays were performed in biological duplicates. Nonlinear regression curves were fitted using Xfit. IC50 (absolute IC50) is the dose at which the estimated viability is 50% relative to untreated wells."}, "[7]": {"system": "Miapaca-2 KRAS G12C + V9Y cells", "assay": "Stable KRAS mutant cell line viability assay (CellTiter-Glo), G12C + V9Y", "type": "cell-based", "settings": "Homo sapiens, MIA PaCa-2, 72 h, Miapaca-2 mutant cells, 3 d", "from_the_text": "as §2"}, "[8]": {"system": "Miapaca-2 KRAS G12C + S65W cells", "assay": "Stable KRAS mutant cell line viability assay (CellTiter-Glo), G12C + S65W", "type": "cell-based", "settings": "Homo sapiens, MIA PaCa-2, 72 h, Miapaca-2 mutant cells, 3 d", "from_the_text": "as §2"}, "[9]": {"system": "Miapaca-2 KRAS G12C + R68S cells", "assay": "Stable KRAS mutant cell line viability assay (CellTiter-Glo), G12C + R68S", "type": "cell-based", "settings": "Homo sapiens, MIA PaCa-2, 72 h, Miapaca-2 mutant cells, 3 d", "from_the_text": "as §2"}, "[10]": {"system": "Miapaca-2 KRAS G12C + M72I cells", "assay": "Stable KRAS mutant cell line viability assay (CellTiter-Glo), G12C + M72I", "type": "cell-based", "settings": "Homo sapiens, MIA PaCa-2, 72 h, Miapaca-2 mutant cells, 3 d", "from_the_text": "as §2"}, "[11]": {"system": "Miapaca-2 KRAS G12C + Y96D cells", "assay": "Stable KRAS mutant cell line viability assay (CellTiter-Glo), G12C + Y96D", "type": "cell-based", "settings": "Homo sapiens, MIA PaCa-2, 72 h, Miapaca-2 mutant cells, 3 d", "from_the_text": "as §2"}, "[12]": {"system": "Miapaca-2 KRAS G12C + Q99W cells", "assay": "Stable KRAS mutant cell line viability assay (CellTiter-Glo), G12C + Q99W", "type": "cell-based", "settings": "Homo sapiens, MIA PaCa-2, 72 h, Miapaca-2 mutant cells, 3 d", "from_the_text": "as §2"}}, "note": "pIC50: −log10 of the molar value."}
{"smiles": "CO[C@@H](C)c1ncc(N2CCN(CC(F)(F)F)CC2)cc1-c1c2c3cc(ccc3n1CC(F)(F)F)-c1csc(n1)C[C@H](NC(=O)[C@H](C(C)C)N(C)C(=O)N1CCOCC1)C(=O)N1CCC[C@H](N1)C(=O)OCC(C)(C)C2", "note": "(atropisomer, axis not shown; (M)) [Example 6]", "values": [{"measurement": "pIC50", "setting": "[1]", "value": 7.70}, {"measurement": "pIC50", "setting": "[2]", "value": 7.64}, {"measurement": "pIC50", "setting": "[3]", "value": 8.70}, {"measurement": "pIC50", "setting": "[4]", "value": 8.52}, {"measurement": "pIC50", "setting": "[5]", "value": 8.70}, {"measurement": "pIC50", "setting": "[6]", "value": 8.70}, {"measurement": "pIC50", "setting": "[7]", "value": 8.70}, {"measurement": "pIC50", "setting": "[8]", "value": 8.22}, {"measurement": "pIC50", "setting": "[9]", "value": 7.47}, {"measurement": "pIC50", "setting": "[10]", "value": 8.52}, {"measurement": "pIC50", "setting": "[11]", "value": 8.15}, {"measurement": "pIC50", "setting": "[12]", "value": 8.15}]}
